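Interpolation was linear, between the two tested concentrations surrounding the appropriate level; five concentrations were tested over 48 hours in 96-well plates. Abbreviation: GI50, concentration required for 50% inhibition of growth.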 The source made the active and inactive calls. Rule as the data show it: active = GI50 up to about 1.1 µM and inactive = higher.
Experiments:
Assay in all cases: growth of human tumour cells (NCI), 48 h
U-251 = test system: U-251
CCRF-CEM = test system: CCRF-CEM
NCI-H226 = test system: NCI-H226
SNB-19 = test system: SNB-19
A549 = test system: A549
COLO 205 = test system: COLO 205
UO-31 = test system: UO-31
UACC-257 = test system: UACC-257
M14 = test system: M14
ACHN = test system: ACHN
KM12 = test system: KM12
LOX IMVI = test system: LOX IMVI
HOP-62 = test system: HOP-62
HCC 2998 = test system: HCC 2998
NCI-H23 = test system: NCI-H23
HOP-18 = test system: HOP-18
786-0 = test system: 786-0
TK-10 = test system: TK-10
HT-29 = test system: HT-29
SR = test system: SR
SNB-75 = test system: SNB-75
UACC-62 = test system: UACC-62
MOLT-4 = test system: MOLT-4
DMS-114 = test system: DMS-114
SW-620 = test system: SW-620
HCT-116 = test system: HCT-116
RPMI-8226 = test system: RPMI-8226
SK-MEL-28 = test system: SK-MEL-28
NCI-H460 = test system: NCI-H460
A498 = test system: A498
HL-60 = test system: HL-60
K562 = test system: K562
DMS-273 = test system: DMS-273
EKVX = test system: EKVX
LXFL 529 = test system: LXFL 529
SK-MEL-2 = test system: SK-MEL-2
SN12C = test system: SN12C
OVCAR-5 = test system: OVCAR-5
SK-MEL-5 = test system: SK-MEL-5
NCI-H522 = test system: NCI-H522
IGROV-1 = test system: IGROV-1
SF-539 = test system: SF-539
OVCAR-4 = test system: OVCAR-4
OVCAR-3 = test system: OVCAR-3
OVCAR-8 = test system: OVCAR-8
DLD-1 = test system: DLD-1
SF-268 = test system: SF-268
Malme-3M = test system: Malme-3M
KM-20L2 = test system: KM-20L2
HCT-15 = test system: HCT-15
SK-OV-3 = test system: SK-OV-3
RXF 393 = test system: RXF 393
SNB-78 = test system: SNB-78
HOP-92 = test system: HOP-92
CAKI-1 = test system: CAKI-1
M19-MEL = test system: M19-MEL
SF-295 = test system: SF-295
XF498 = test system: XF498

N#CC1(C#N)C(C#N)(C#N)C12CCCCCC2
GI50 (U-251): 14.1 µM (inactive) | GI50 (CCRF-CEM): 1.85 µM (inactive) | GI50 (NCI-H226): 20 µM (inactive) | GI50 (SNB-19): 29.4 µM (inactive) | GI50 (A549): 14.7 µM (inactive) | GI50 (COLO 205): 15.7 µM (inactive) | GI50 (UO-31): 18.5 µM (inactive) | GI50 (UACC-257): 13.9 µM (inactive) | GI50 (M14): 2.81 µM (inactive) | GI50 (ACHN): 11.1 µM (inactive) | GI50 (KM12): 14 µM (inactive) | GI50 (LOX IMVI): 16.7 µM (inactive) | GI50 (HOP-62): > 52.8 µM (inactive) | GI50 (HCC 2998): 19.6 µM (inactive) | GI50 (NCI-H23): 16 µM (inactive) | GI50 (HOP-18): 16.4 µM (inactive) | GI50 (786-0): 6.59 µM (inactive) | GI50 (TK-10): 16.8 µM (inactive) | GI50 (HT-29): 17.2 µM (inactive) | GI50 (SR): 22.1 µM (inactive) | GI50 (SNB-75): 22.9 µM (inactive) | GI50 (UACC-62): 12.9 µM (inactive) | GI50 (MOLT-4): 5.45 µM (inactive) | GI50 (DMS-114): 21.1 µM (inactive) | GI50 (SW-620): 1.95 µM (inactive) | GI50 (HCT-116): 5.01 µM (inactive) | GI50 (RPMI-8226): 3.28 µM (inactive) | GI50 (SK-MEL-28): 8.57 µM (inactive) | GI50 (NCI-H460): > 47.1 µM (inactive) | GI50 (A498): 18.5 µM (inactive) | GI50 (HL-60): 3.48 µM (inactive) | GI50 (K562): 3.1 µM (inactive) | GI50 (DMS-273): 22.4 µM (inactive) | GI50 (EKVX): 17.3 µM (inactive) | GI50 (LXFL 529): 15.2 µM (inactive) | GI50 (SK-MEL-2): 13.2 µM (inactive) | GI50 (SN12C): 18.1 µM (inactive) | GI50 (OVCAR-5): 16.4 µM (inactive) | GI50 (SK-MEL-5): 18 µM (inactive) | GI50 (NCI-H522): 2.77 µM (inactive) | GI50 (IGROV-1): 40.2 µM (inactive) | GI50 (SF-539): 13.6 µM (inactive) | GI50 (OVCAR-4): 16.3 µM (inactive) | GI50 (OVCAR-3): 16.1 µM (inactive) | GI50 (OVCAR-8): 13.2 µM (inactive) | GI50 (DLD-1): 4.1 µM (inactive) | GI50 (SF-268): 22.5 µM (inactive) | GI50 (Malme-3M): 16.4 µM (inactive) | GI50 (KM-20L2): 16.6 µM (inactive) | GI50 (HCT-15): 8.41 µM | GI50 (SK-OV-3): > 64.4 µM (inactive) | GI50 (RXF 393): 10.4 µM (inactive) | GI50 (SNB-78): 13.3 µM (inactive) | GI50 (HOP-92): 15.4 µM (inactive) | GI50 (CAKI-1): 12.2 µM (inactive) | GI50 (M19-MEL): 20.5 µM (inactive) | GI50 (SF-295): > 39.7 µM (inactive)

COc1ccc2c([nH]c3cc(O)c(C)cc32)c1CC=C(C)C
GI50 (NCI-H226): > 25 µM (inactive) | GI50 (SNB-19): > 25 µM (inactive) | GI50 (COLO 205): > 25 µM (inactive) | GI50 (HT-29): 7.24 µM (inactive) | GI50 (DMS-114): 20.9 µM (inactive) | GI50 (RPMI-8226): 8.38 µM (inactive) | GI50 (SK-MEL-28): > 25 µM (inactive) | GI50 (XF498): > 25 µM (inactive) | GI50 (SK-MEL-2): > 25 µM (inactive) | GI50 (SN12C): 5.04 µM (inactive) | GI50 (OVCAR-5): > 25 µM (inactive) | GI50 (IGROV-1): 23.1 µM (inactive) | GI50 (OVCAR-4): 22.5 µM (inactive) | GI50 (OVCAR-3): 5.32 µM (inactive) | GI50 (OVCAR-8): 4.42 µM (inactive) | GI50 (SK-OV-3): > 25 µM (inactive) | GI50 (SNB-78): 11.5 µM (inactive)

COc1cc2c(cc1OC)C(=O)Cc1ccc3c(c1CNCC2)OCO3
GI50 (U-251): > 100 µM (inactive) | GI50 (CCRF-CEM): > 100 µM (inactive) | GI50 (SNB-19): > 100 µM (inactive) | GI50 (A549): > 100 µM (inactive) | GI50 (COLO 205): > 100 µM (inactive) | GI50 (UO-31): > 100 µM (inactive) | GI50 (UACC-257): > 100 µM (inactive) | GI50 (M14): > 100 µM (inactive) | GI50 (ACHN): > 100 µM (inactive) | GI50 (KM12): > 100 µM (inactive) | GI50 (HOP-62): > 100 µM (inactive) | GI50 (HCC 2998): > 100 µM (inactive) | GI50 (NCI-H23): > 100 µM (inactive) | GI50 (HOP-18): > 100 µM (inactive) | GI50 (786-0): > 100 µM (inactive) | GI50 (TK-10): > 100 µM (inactive) | GI50 (HT-29): > 100 µM (inactive) | GI50 (SNB-75): > 100 µM (inactive) | GI50 (UACC-62): > 100 µM (inactive) | GI50 (MOLT-4): > 100 µM (inactive) | GI50 (DMS-114): > 100 µM (inactive) | GI50 (SW-620): > 100 µM (inactive) | GI50 (HCT-116): > 100 µM (inactive) | GI50 (RPMI-8226): > 100 µM (inactive) | GI50 (SK-MEL-28): > 100 µM (inactive) | GI50 (NCI-H460): > 100 µM (inactive) | GI50 (XF498): > 100 µM (inactive) | GI50 (A498): > 100 µM (inactive) | GI50 (K562): > 100 µM (inactive) | GI50 (EKVX): > 100 µM (inactive) | GI50 (LXFL 529): > 100 µM (inactive) | GI50 (SK-MEL-2): > 100 µM (inactive) | GI50 (SN12C): > 100 µM (inactive) | GI50 (OVCAR-5): > 100 µM (inactive) | GI50 (SK-MEL-5): > 100 µM (inactive) | GI50 (NCI-H522): > 100 µM (inactive) | GI50 (IGROV-1): > 100 µM (inactive) | GI50 (SF-539): > 100 µM (inactive) | GI50 (OVCAR-4): > 100 µM (inactive) | GI50 (OVCAR-3): > 100 µM (inactive) | GI50 (OVCAR-8): > 100 µM (inactive) | GI50 (DLD-1): > 100 µM (inactive) | GI50 (SF-268): > 100 µM (inactive) | GI50 (Malme-3M): > 100 µM (inactive) | GI50 (KM-20L2): > 100 µM (inactive) | GI50 (HCT-15): > 100 µM | GI50 (SK-OV-3): > 100 µM (inactive) | GI50 (SNB-78): > 100 µM (inactive) | GI50 (CAKI-1): > 100 µM (inactive) | GI50 (M19-MEL): > 100 µM (inactive) | GI50 (SF-295): > 100 µM (inactive)
